According to US5663149A, “Human cancer inhibitory pentapeptide heterocyclic and halophenyl amides” (priority 1994, dated 1997):

Tests used:
A498 (Renal) = details: Renal A498, 48 hours;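 further: NCI protocol, compound given at five doses from 0.01 to 100 µg/ml, percent growth versus untreated controls relative to cell count at time zero, regression on log dose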
Description: The following measures are used to express drug activity by giving the drug dose which reduces cell growth to a specified percentage of growth:
There is no mathematical difference between ED50 and GI50, which are both calculated using the same formula. The only difference is historical usage.
TGI, (Total Growth Inhibition), is the drug dose needed to yield zero percent growth, i.e., just as many cells at the end of the experiment as were present in the beginning. Whether just as many cells were killed as were produced (steady state), or no growth occurred (total inhibition), cannot be distinguished.
Each drug is tested at five (5) doses: 100-10-1-0.1-0.01 μg/ml. Percent Growths are calculated for each dose. […] The log of the dose is used during the regression computation.
At the start of an experiment, cells from the in vitro cell cultures are inoculated into the appropriate tubes or microtiter plates. One set of control tubes/plates is immediately counted to determine the number of cells at the start of the experiment. This is the "baseline count", or "Tzero reading". At the end of the experiment (48 hours later) a second set of control tubes/plates is analyzed to determine the "Control Growth" value. The growth (or death) of cells relative to the initial quantity of cells is used to define the "Percent of Growth".

KM20L2 (Colon) = assay: NCI human tumor cell line growth inhibition, KM20L2; format: cell-based; details: Colon KM20L2, 48 hours
Procedure: (§1) The only difference is historical usage.
(§2) Percent Growths are calculated for each dose.
(§3) This is the "baseline count", or "Tzero reading".

PS-388 (Mouse Leukemia) = assay: P-388 mouse leukemia cell growth inhibition; format: cell-based; details: Mouse Leukemia PS-388
Procedure: as §1, §2, §3

SK-MEL-5 (Melanoma) = assay: NCI human tumor cell line growth inhibition, SK-MEL-5; format: cell-based; details: Melanoma SK-MEL-5, 48 hours
Procedure: as §1, §2, §3

OVCAR-3 (Ovarian) = assay: NCI human tumor cell line growth inhibition, OVCAR-3; format: cell-based; details: Ovarian OVCAR-3, 48 hours
Procedure: as §1, §2, §3

NCI-H460 (Lung-NSC) = assay: NCI human tumor cell line growth inhibition, NCI-H460; format: cell-based; details: Lung-NSC NCI-H460, 48 hours
Procedure: as §1, §2, §3

SF-295 (CNS) = assay: NCI human tumor cell line growth inhibition, SF-295; format: cell-based; details: CNS SF-295, 48 hours
Procedure: as §1, §2, §3

| Substance | GI-50 (A498 (Renal)) | TGI (A498 (Renal)) | GI-50 (KM20L2 (Colon)) | TGI (KM20L2 (Colon)) | ED-50 (PS-388 (Mouse Leukemia)) | GI-50 (SK-MEL-5 (Melanoma)) | TGI (SK-MEL-5 (Melanoma)) | GI-50 (OVCAR-3 (Ovarian)) | TGI (OVCAR-3 (Ovarian)) | GI-50 (NCI-H460 (Lung-NSC)) | TGI (NCI-H460 (Lung-NSC)) | GI-50 (SF-295 (CNS)) | TGI (SF-295 (CNS)) | LC-50 (A498 (Renal)) | LC-50 (KM20L2 (Colon)) | LC-50 (SK-MEL-5 (Melanoma)) | LC-50 (OVCAR-3 (Ovarian)) | LC-50 (NCI-H460 (Lung-NSC)) | LC-50 (SF-295 (CNS)) |
| --- | --- | --- | --- | --- | --- | --- | --- | --- | --- | --- | --- | --- | --- | --- | --- | --- | --- | --- | --- |
| L-Dolavalyl-L-Valyl-N-Methyl-(S,S,R)-Dolaisoleuinyl-(S,R,R)-Dolaproinyl-L- (p-Chloro)phenylalanine N-2-(6-Chloro)benzothiazole Amide [9l] | 0.000059 µg/mL | > 0.1 ng/mL | 0.000031 µg/mL | 0.096 ng/mL | 0.000458 µg/mL | 0.0000061 µg/mL | > 0.1 ng/mL | 0.000018 µg/mL | 0.071 ng/mL | 0.000043 µg/mL | > 0.1 ng/mL | 0.000036 µg/mL | > 0.1 ng/mL | – | – | – | – | – | – |
| L-Dolavalyl-L-Valyl-N-Methyl-(S,S,R)-Dolaisoleuinyl-(S,R,R)-Dolaproinyl-L- Isoleucine N-3-Quinoline Amide [9s] | 0.000065 µg/mL | > 0.1 ng/mL | 0.00003 µg/mL | > 0.1 ng/mL | 0.00352 µg/mL | 0.0000039 µg/mL | > 0.1 ng/mL | 0.000018 µg/mL | 0.079 ng/mL | 0.000027 µg/mL | > 0.1 ng/mL | 0.000028 µg/mL | > 0.1 ng/mL | > 0.0001 µg/mL | > 0.0001 µg/mL | > 0.0001 µg/mL | > 0.0001 µg/mL | > 0.0001 µg/mL | > 0.0001 µg/mL |
| L-Dolavalyl-L-Valyl-N-Methyl-(S,S,R)-Dolaisoleuinyl-(S,R,R)-Dolaproinyl-L- Methionine N-1-(2-p-Chlorophenylethyl) Amide [9i] | 0.000067 µg/mL | > 1 ng/mL | 0.0000048 µg/mL | 0.13 ng/mL | 0.000111 µg/mL | 0.0000012 µg/mL | 0.43 ng/mL | 0.000017 µg/mL | 0.072 ng/mL | 0.0000032 µg/mL | 0.011 ng/mL | 0.000026 µg/mL | > 1 ng/mL | > 0.001 µg/mL | > 0.001 µg/mL | > 0.001 µg/mL | > 0.001 µg/mL | > 0.001 µg/mL | > 0.001 µg/mL |
| L-Dolavalyl-L-Valyl-N-Methyl-(S,S,R)-Dolaisoleuinyl-(S,R,R)-Dolaproinyl-L- Methionine N-2,5-Dichlorophenyl Amide [9g] | 0.00036 µg/mL | > 1 ng/mL | 0.00015 µg/mL | 0.61 ng/mL | 0.000125 µg/mL | 0.000062 µg/mL | 0.65 ng/mL | 0.00014 µg/mL | 0.51 ng/mL | 0.00017 µg/mL | 0.66 ng/mL | 0.00013 µg/mL | > 1 ng/mL | > 0.001 µg/mL | > 0.001 µg/mL | > 0.001 µg/mL | > 0.001 µg/mL | > 0.001 µg/mL | > 0.001 µg/mL |
| L-Dolavalyl-L-Valyl-N-Methyl-(S,S,R)-Dolaisoleuinyl-(S,R,R)-Dolaproinyl-L- Methionine N-2-Benzothiazole Amide [9m] | 0.000016 µg/mL | > 0.1 ng/mL | 0.0000041 µg/mL | > 0.1 ng/mL | 0.000243 µg/mL | 0.0000024 µg/mL | > 0.1 ng/mL | 0.0000016 µg/mL | 0.011 ng/mL | 0.000011 µg/mL | 0.08 ng/mL | 0.000022 µg/mL | > 0.1 ng/mL | – | – | – | – | – | – |
| L-Dolavalyl-L-Valyl-N-Methyl-(S,S,R)-Dolaisoleuinyl-(S,R,R)-Dolaproinyl-L- Methionine N-2-Chlorophenyl Amide [9b] | 0.000073 µg/mL | > 1 ng/mL | 0.000034 µg/mL | 0.18 ng/mL | 0.000211 µg/mL | 0.00002 µg/mL | > 1 ng/mL | 0.000028 µg/mL | 0.091 ng/mL | 0.000031 µg/mL | 0.11 ng/mL | 0.000036 µg/mL | > 1 ng/mL | > 0.001 µg/mL | > 0.001 µg/mL | > 0.001 µg/mL | > 0.001 µg/mL | > 0.001 µg/mL | > 0.001 µg/mL |
| L-Dolavalyl-L-Valyl-N-Methyl-(S,S,R)-Dolaisoleuinyl-(S,R,R)-Dolaproinyl-L- Methionine N-2-Pyridyl Amide [9o] | 0.00023 µg/mL | > 1 ng/mL | 0.000033 µg/mL | 0.31 ng/mL | 0.000262 µg/mL | 0.000016 µg/mL | 0.6 ng/mL | 0.000032 µg/mL | 0.22 ng/mL | 0.00012 µg/mL | 0.59 ng/mL | 0.00016 µg/mL | > 1 ng/mL | > 0.001 µg/mL | > 0.001 µg/mL | > 0.001 µg/mL | > 0.001 µg/mL | > 0.001 µg/mL | > 0.001 µg/mL |
| L-Dolavalyl-L-Valyl-N-Methyl-(S,S,R)-Dolaisoleuinyl-(S,R,R)-Dolaproinyl-L- Methionine N-3-Chlorophenyl Amide [9c] | 0.000084 µg/mL | > 1 ng/mL | 0.000023 µg/mL | 0.1 ng/mL | 0.00000264 µg/mL | 0.0000013 µg/mL | 0.26 ng/mL | 0.000011 µg/mL | 0.1 ng/mL | 0.000025 µg/mL | 0.11 ng/mL | 0.000031 µg/mL | > 1 ng/mL | > 0.001 µg/mL | > 0.001 µg/mL | > 0.001 µg/mL | > 0.001 µg/mL | > 0.001 µg/mL | > 0.001 µg/mL |
| L-Dolavalyl-L-Valyl-N-Methyl-(S,S,R)-Dolaisoleuinyl-(S,R,R)-Dolaproinyl-L- Methionine N-3-Quinoline Amide [9p] | 0.000008 µg/mL | > 0.1 ng/mL | 0.00000065 µg/mL | > 0.1 ng/mL | 0.000356 µg/mL | 0.00000038 µg/mL | > 0.1 ng/mL | 0.00000032 µg/mL | 0.01 ng/mL | 0.0000031 µg/mL | 0.017 ng/mL | 0.000004 µg/mL | > 0.1 ng/mL | > 0.0001 µg/mL | > 0.0001 µg/mL | > 0.0001 µg/mL | > 0.0001 µg/mL | > 0.0001 µg/mL | > 0.0001 µg/mL |
| L-Dolavalyl-L-Valyl-N-Methyl-(S,S,R)-Dolaisoleuinyl-(S,R,R)-Dolaproinyl-L- Methionine N-4-Chlorophenyl Amide [9e] | 0.0000035 µg/mL | > 0.01 ng/mL | 0.00000084 µg/mL | 0.0051 ng/mL | 0.000603 µg/mL | 0.00000033 µg/mL | > 0.01 ng/mL | 0.00000045 µg/mL | 0.0042 ng/mL | 0.0000022 µg/mL | 0.0085 ng/mL | 0.0000023 µg/mL | > 0.01 ng/mL | > 0.00001 µg/mL | > 0.00001 µg/mL | > 0.00001 µg/mL | > 0.00001 µg/mL | > 0.00001 µg/mL | > 0.00001 µg/mL |
| L-Dolavalyl-L-Valyl-N-Methyl-(S,S,R)-Dolaisoleuinyl-(S,R,R)-Dolaproinyl-L- Methionine N-4-Fluorophenyl Amide [9a] | 0.00025 µg/mL | > 1 ng/mL | 0.00005 µg/mL | 0.39 ng/mL | 0.000317 µg/mL | 0.000038 µg/mL | 0.57 ng/mL | 0.000049 µg/mL | 0.33 ng/mL | 0.000089 µg/mL | 0.66 ng/mL | 0.0001 µg/mL | > 1 ng/mL | > 0.001 µg/mL | > 0.001 µg/mL | > 0.001 µg/mL | > 0.001 µg/mL | > 0.001 µg/mL | > 0.001 µg/mL |
